Source: patent US20240002369A1, “NOVEL TREATMENTS OF ATTENTION DEFICIT/HYPERACTIVITY DISORDER” (priority 2020, published 2024)
Where a name gives a salt, the structure may show the parent alone. Marks after values point to notes of the source that are not given here.

How the values were obtained:
Lphn3.1 HOM larvae = assay: Sleep behavior in freely moving zebrafish larvae during lights-off period; settings: for comparison of all sleep parameters (summary): 1, 10, 30 μM, FIG. 6A-6D
Method: This assay provides a measure of muscle weakness and/or motor coordination, which co-occurs with certain sleep states, but can also occur independently of sleep. […] Thus, to evaluate the effect of moxonidine on sleep behavior, the sleep behavior in freely moving zebrafish (Lphn3.1 HOM larvae) following treatment with moxonidine, a comparator compound, or negative control (i.e. saline or vehicle control) was assessed in line with the criteria described by Levitas-Djerbi et al., (Curr Opin Neurobiol. 2017; 44:89-93) and Sorribes et al., (Front Neural Circuits. 2013 Nov. 13; 7:178).
In brief, sleep behavior was recorded in a 96-well plate and analysed during the lights-off period (22:00-08:00). First, all behavior was dichotomized into 1-s bins of movement or non-movement. […] All activity that was slower than that threshold was computed as non-movement. Thus, rendering a dichotomized record of the behavior in either movement or non-movement. Next, the dichotomized record was transformed into bins of sleep and wake. Following previously established sleep criteria in adults, and adapted to larval fish (Yokogawa et al., PLoS Biol. 2007; 5(10):2379-97, Sorribes et al., Front Neural Circuits. 2013; 7:178, and Sigurgeirsson et al., Behav Brain Res. 2013; 256:377-90), six or more consecutive 1-s bins of non-movement were counted as sleep and all else was counted as wake. That is, the seventh second and above were classified as sleep; all other bouts were classified as wake. Once the number of sleep and wake bouts was calculated, five different sleep parameters were assessed (i.e. sleep fragmentation, sleep ratio, velocity during sleep, wake bout duration(s), and sleep bout duration(s)). Sleep fragmentation was defined as the number of transitions between sleep and wake bouts per hour. Sleep ratio was calculated as the percentage of total night time that the fish was considered asleep. Velocity during sleep (mm/s) was defined as the average velocity throughout the night time. Wake bout duration(s) was defined as the average length of wake bouts. Sleep bout duration(s) was defined as the average length of sleep bouts.

Lphn3.1 WT larvae = assay: Motor assay in wild-type zebrafish larvae; format: in vivo, zebrafish (Danio rerio)
[1] = test system: scopolamine-induced cognitive dysfunction; assay: T-maze alternation test, scopolamine-induced cognitive dysfunction model; format: in vivo, Male CD-1 mice; settings: vs scopolamine-exposed mice; p<0.0001; FIG. 4
Description: Male CD-1 mice aged 4-5 weeks were allocated to a T-maze to perform the T-maze alternation test as described by Andriambeloson et al., 2014 (Pharma Res Per, 2 (4), 2014, e00048, included herein by reference). In brief, each mouse was placed in a T-maze consisting of a main stem and two arms. The experiment consisted of one “forced-choice” trial and 14 “free-choice” trials to evaluate the number of spontaneous alternations.

[2] = Lphn3.1 HOM, zebrafish, in vivo, 10 h, 1 uM
[3] = Lphn3.1 HOM, zebrafish, in vivo, 10 h, 10 uM
[4] = Lphn3.1 HOM, zebrafish, in vivo, 10 h, 30 uM
[5] = 1 uM vs HOM - DMSO, average length of sleep bouts
[6] = 1 uM vs HOM - DMSO, average length of wake bouts
[7] = 1 uM vs HOM - DMSO, average velocity throughout the night time
[8] = 1 uM vs HOM - DMSO, share of total night time asleep
[9] = 1 uM vs HOM - DMSO, transitions between sleep and wake bouts per hour, lights-off 22:00-08:00
[10] = 10 uM vs HOM - DMSO, average length of sleep bouts
[11] = 10 uM vs HOM - DMSO, average length of wake bouts
[12] = 10 uM vs HOM - DMSO, average velocity throughout the night time
[13] = 10 uM vs HOM - DMSO, share of total night time asleep
[14] = 10 uM vs HOM - DMSO, transitions between sleep and wake bouts per hour, lights-off 22:00-08:00
[15] = 30 uM vs HOM - DMSO, average length of sleep bouts
[16] = 30 uM vs HOM - DMSO, average length of wake bouts
[17] = 30 uM vs HOM - DMSO, average velocity throughout the night time
[18] = 30 uM vs HOM - DMSO, share of total night time asleep
[19] = 30 uM vs HOM - DMSO, transitions between sleep and wake bouts per hour, lights-off 22:00-08:00

In the case of N=C(N)NC(=O)Cc1c(Cl)cccc1Cl [Guanfacine, guanfacine], the “SleepDuration (sleep bout duration) Mean Difference (I − J)” value (Lphn3.1 HOM larvae; [2]) was 3.64* s, the “SleepFragmentation Mean Difference (I − J)” value (Lphn3.1 HOM larvae; [2]) was −1.812 and the “SleepRatio Mean Difference (I − J)” value (Lphn3.1 HOM larvae; [2]) was “.12336*”. The “Velocity (during sleep) Mean Difference (I − J)” value (Lphn3.1 HOM larvae; [2]) was “−.08559* mm/s”, the “WakeDuration (wake bout duration) Mean Difference (I − J)” value (Lphn3.1 HOM larvae; [2]) was −3.163* s and the “SleepDuration (sleep bout duration) Mean Difference (I − J)” value (Lphn3.1 HOM larvae; [3]) was 1.224 s. The “SleepFragmentation Mean Difference (I − J)” value (Lphn3.1 HOM larvae; [3]) was 7.4424, the “SleepRatio Mean Difference (I − J)” value (Lphn3.1 HOM larvae; [3]) was “.06927*” and the “Velocity (during sleep) Mean Difference (I − J)” value (Lphn3.1 HOM larvae; [3]) was “−.07521* mm/s”. For the same compound, the “WakeDuration (wake bout duration) Mean Difference (I − J)” value (Lphn3.1 HOM larvae; [3]) was −2.542* s, the “SleepDuration (sleep bout duration) Mean Difference (I − J)” value (Lphn3.1 HOM larvae; [4]) was 2.369* s and the “SleepFragmentation Mean Difference (I − J)” value (Lphn3.1 HOM larvae; [4]) was 1.559. For the same compound, the “SleepRatio Mean Difference (I − J)” value (Lphn3.1 HOM larvae; [4]) was “.09806*”, the “Velocity (during sleep) Mean Difference (I − J)” value (Lphn3.1 HOM larvae; [4]) was “−.08512* mm/s” and the “WakeDuration (wake bout duration) Mean Difference (I − J)” value (Lphn3.1 HOM larvae; [4]) was −2.735* s.
For Clc1cccc(Cl)c1N=C1NCCN1 [Clonidine, clonidine], the “SleepDuration (sleep bout duration) Mean Difference (I − J)” value (Lphn3.1 HOM larvae; [5]) was −4.177* s, the “WakeDuration (wake bout duration) Mean Difference (I − J)” value (Lphn3.1 HOM larvae; [6]) was 2.095* s and the “Velocity (during sleep) Mean Difference (I − J)” value (Lphn3.1 HOM larvae; [7]) was “.08382* mm/s”. For the same compound, the “SleepRatio Mean Difference (I − J)” value (Lphn3.1 HOM larvae; [8]) was “−.12630*”, the “SleepFragmentation Mean Difference (I − J)” value (Lphn3.1 HOM larvae; [9]) was 11.79* and the “SleepDuration (sleep bout duration) Mean Difference (I − J)” value (Lphn3.1 HOM larvae; [10]) was −4.388* s. For the same compound, the “WakeDuration (wake bout duration) Mean Difference (I − J)” value (Lphn3.1 HOM larvae; [11]) was 2.1* s, the “Velocity (during sleep) Mean Difference (I − J)” value (Lphn3.1 HOM larvae; [12]) was “.09470* mm/s” and the “SleepRatio Mean Difference (I − J)” value (Lphn3.1 HOM larvae; [13]) was “−.13226*”. For the same compound, the “SleepFragmentation Mean Difference (I − J)” value (Lphn3.1 HOM larvae; [14]) was 12.98*, the “SleepDuration (sleep bout duration) Mean Difference (I − J)” value (Lphn3.1 HOM larvae; [15]) was −6.197* s and the “WakeDuration (wake bout duration) Mean Difference (I − J)” value (Lphn3.1 HOM larvae; [16]) was 8.132* s. The “Velocity (during sleep) Mean Difference (I − J)” value (Lphn3.1 HOM larvae; [17]) was “.23026* mm/s”, the “SleepRatio Mean Difference (I − J)” value (Lphn3.1 HOM larvae; [18]) was “−.24115*” and the “SleepFragmentation Mean Difference (I − J)” value (Lphn3.1 HOM larvae; [19]) was −7.699. For the same compound, the “comparison of all sleep parameters (summary)” value (Lphn3.1 HOM larvae) was “drastically altered all sleep parameters at the majority of doses tested”.
CNCC[C@@H](Oc1ccccc1C)c1ccccc1 [atomoxetine, atomoxetine hydrochloride] was tested, and the “velocity in wild-type larvae” value (Lphn3.1 WT larvae) was “increase velocity”, the “SleepDuration (sleep bout duration) Mean Difference (I − J)” value (Lphn3.1 HOM larvae; [5]) was 8.266* s and the “WakeDuration (wake bout duration) Mean Difference (I − J)” value (Lphn3.1 HOM larvae; [6]) was −2.547* s. The “Velocity (during sleep) Mean Difference (I − J)” value (Lphn3.1 HOM larvae; [7]) was “−.09320* mm/s”, the “SleepRatio Mean Difference (I − J)” value (Lphn3.1 HOM larvae; [8]) was “.18730*” and the “SleepFragmentation Mean Difference (I − J)” value (Lphn3.1 HOM larvae; [9]) was −23.58*. The “SleepDuration (sleep bout duration) Mean Difference (I − J)” value (Lphn3.1 HOM larvae; [10]) was 6.306* s, the “WakeDuration (wake bout duration) Mean Difference (I − J)” value (Lphn3.1 HOM larvae; [11]) was -1.806 s and the “Velocity (during sleep) Mean Difference (I − J)” value (Lphn3.1 HOM larvae; [12]) was “−.03944* mm/s”. For the same compound, the “SleepRatio Mean Difference (I − J)” value (Lphn3.1 HOM larvae; [13]) was “.15382*”, the “SleepFragmentation Mean Difference (I − J)” value (Lphn3.1 HOM larvae; [14]) was −19.14* and the “SleepDuration (sleep bout duration) Mean Difference (I − J)” value (Lphn3.1 HOM larvae; [15]) was 9.808* s. The “WakeDuration (wake bout duration) Mean Difference (I − J)” value (Lphn3.1 HOM larvae; [16]) was −3.112* s, the “Velocity (during sleep) Mean Difference (I − J)” value (Lphn3.1 HOM larvae; [17]) was “−.10640* mm/s” and the “SleepRatio Mean Difference (I − J)” value (Lphn3.1 HOM larvae; [18]) was “.22326*”. For the same compound, the “SleepFragmentation Mean Difference (I − J)” value (Lphn3.1 HOM larvae; [19]) was −26.47*, the “comparison of all sleep parameters (summary)” value (Lphn3.1 HOM larvae) was “drastically altered all sleep parameters at the majority of doses tested” and the “spontaneous alternations, rescue of scopolamine effect” value [1] was “rescued”.
